Values quoted from earlier work, collected in US20200338016A1, “COMBINATION BROAD-SPECTRUM ANTIBIOTIC PREPARATIONS FOR DRUG-RESISTANT PATHOGENS” (priority 2019, published 2020).

System: Mycobacterim tuberculosis
Settings: ten strains of Mycobacterim tuberculosis, including six resistant to antibiotics

Row | SMILES | concentration that kills [micrograms per milliliter]
1 | O=C(O)/C=C/c1ccc(O)c(O)c1 [caffeic acid] | 1024
2 | O=C(O[C@@H]1Cc2c(O)cc(O)cc2O[C@@H]1c1cc(O)c(O)c(O)c1)c1cc(O)c(O)c(O)c1 [EGCG, epigallocatechin gallate] | 1024
3 | O=c1c(O)c(-c2ccc(O)c(O)c2)oc2cc(O)cc(O)c12 [quercetin] | 1024
